# Assay results from patent US20040229816A1, “Anti-angiogenic and anti-tumoral properties of beta and gamma secretase inhibitors” (priority 2003, published 2004).
# Entries after “also recorded” stand apart in the source; their conditions may differ. Where two headings read alike, the source gives them in different places. Numbered stars: 1 amine (or outer) side, 2 acyl side, 3 side chain; on linkers, the order of the positions; unused ones are H or OH. Square brackets hold non-standard residues; d marks the D form. Peptide text beside a SMILES is read from it. LeuΨ(S-CHOHCH2)Ala = CC(C)C[C@H](N[*:1])[C@@H](O)C[C@@H](C)C(=O)[*:2]; Sta = CC(C)C[C@H](N)[C@@H](O)CC(=O)O
# Key:
# [1] = test system: human brain endothelial cells; test: viability of human brain endothelial cells (LDH activity in culture medium); assay type: cell-based; settings: 24 hours; for cellular toxicity / viability of human brain endothelial cells versus control: doses employed; for LDH activity in the culture medium, ANOVA main effect: various doses
# Description: (§1) Primary cultures of human brain endothelial cells were plated at a density of 10^4 cells/[…] of EBM 4% in 96 wells culture plates and treated with various doses of γ-secretase and β-secretase inhibitors as indicated in the figure legends. Following 24 hours in culture, the EBM covering the cells was removed and assayed for Lacticodehydrogenase (LDH) activity using the cytotoxicity detection kit (Roche Diagnostic Corporation, Ind.). Cells were covered with […] of EBM 4% and cellular proliferation measured using the Quick cell proliferation assay kit (Biovision Research Products, Calif.).
# APP [2] = test: carboxyl-terminal APP fragments in human brain endothelial cell lysates (immunoblotting); assay type: cell-based; settings: 5 μM, 24 hours
# Description: (§2) Confluent human brain endothelial cells (grown on 75 cm2 flasks with EBM 4% FBS medium) were treated for 24 hours with 5 μM of Z-VVL-CHO, 5 μM of L-685,458, 5 μM of OM99-2, 5 AM of DAPT or went untreated (control). Experiments were done in quadriplicate for each treatment condition. 6E10 (Signet), a mAb that recognizes residues 1-17 of human Aβ (Van Nostrand et al., Nature, 341, 546-549, 1989) was used to immunoprecipitate soluble APP generated following cleavage by α-secretase from cell culture medium. Immunoprecipitated material was resolved on a 4-20% gradient SDS-PAGE, transferred to PVDF membranes and immunodetected with mAb 22C11 (Roche Diagnostics) that recognizes the amino acids 66-81 of the N-terminal portion of APP (Hibich, C., J. Biol. Chem., 268, 26571-26577, 1993). Human brain endothelial cells were lysed on ice using MPERTM reagent (Pierce) supplemented with 1 mM PMSF and 1 mM of sodium-orthovanadate. Samples were sonicated and centrifuged at 10,000 g for 30 min at 4° C. The protein content of the lysates was determined using the BCA Protein assay kit (Pierce). Total lysates ([…] of protein/sample) were separated on a 4-20% gradient SDS-PAGE and transferred to PVDF membranes and immunoprobed with mAb 22C11 in order to detect full length APP and also immunoprobed with an Anti-APP-CT20 (Calbiochem) antibody which recognizes the amino acid residues 751-770 of the carboxyl terminal region of APP (Pinnix et al. 2001; J. Biol. Chem., 276, 481).
# Notch = settings: cited from earlier work
# APP [3] = test: α-sAPP secretion by human brain endothelial cells (immunoprecipitation, immunoblotting); assay type: cell-based; settings: 5 μM, 24 hours
# Description: as §2
# γ-secretase [4] = settings: cited from earlier work
# [5] = test system: Human middle cerebral artery endothelial cells; test: capillary morphogenesis assay; assay type: cell-based
# Description: Two hundred μl of Matrigel were placed into each well of a 24-well culture plate at 4° C. and allowed to polymerize by incubation at 37° C. Human middle cerebral artery endothelial cells (5×104) were seeded on the Matrigel in 1 ml of EBM containing 4% fetal calf serum. The cells were incubated at 37° C. for 20 hours in a humidified 5% CO2 atmosphere in the presence or absence of various doses of γ-secretase and β-secretase inhibitors as indicated in the figure legends. The experiments were performed in quadruplicate for each treatment condition. For each culture, 2 randomly chosen fields were photographed using a 4×objective. An experimenter unaware of the different treatments measured the total length of tube structures in each photograph using the Image Pro Plus software (Media Cybernetic, Inc., Md.). Capillary network lengths for the different treatment conditions were expressed as the percentage of capillary network lengths obtained in the control condition.
# explants of rat aortae = test: rat aortic ring model of angiogenesis (microvessel outgrowths); assay type: cell-based, Sprague Dawley rats
# Description: Twenty four well tissue culture grade plates (Nalgene International, NY) were covered with […] of Matrigel (Becton-Dickinson, Bedford, Mass.) and allowed to gel for 30 min at 37° C., 5% CO2. Briefly, thoracic aortae were excised from 9 month-old Sprague Dawley rats. After removing the fibroadipose tissue, arteries were sectioned into 1 mm long cross sections, rinsed 5 times with EBM (Clonetics Corp.) containing 4% fetal bovine serum (FBS) and placed on the Matrigel coated wells. Artery rings were covered with an additional […] of Matrigel. After polymerization the Matrigel was covered with 1 mL of EBM (4% FBS) containing various doses of Z-VVL-CHO, OM99-2, P10-P4′statV, DAPT, or L-685,458 as indicated in the figure legends (the culture medium was changed every 3 days). Pictures were taken at day 4, 5 and 6 using a 4×objective. Microvessel outgrowth area was quantified using the Image Pro Plus software. Briefly, ring cultures were photographed using a digital video camera linked to an Olympus BX60 microscope. The outgrowth area was delineated and measured with the Image Pro Plus software by using a strategy of microvessel outgrowth detection based on difference in color intensities between the outgrowths, the Matrigel and the artery ring. The artery rings were manually selected and excluded from the area of measurement and the color intensity threshold was adjusted to selectively measure the area occupied by the microvessel outgrowths. Results were expressed as a percentage of the area occupied by microvessel outgrowths at day 4 in control condition.
# [6] = test system: aspartyl protease cathepsin; settings: cited from earlier work
# [7] = test system: human brain endothelial cells; test: proliferation of human brain endothelial cells (Quick cell proliferation assay kit); assay type: cell-based; settings: various doses, 24 hours
# Description: as §1
# presenilin = settings: cited from earlier work
# Aβ = settings: cited from earlier work
# γ-secretase [8] = settings: 7PA2 cells; cited from earlier work
# BACE = BACE (Homo sapiens, UniProt P56817); settings: cited from earlier work
# BACE, sequence (P56817 46-501, species assumed): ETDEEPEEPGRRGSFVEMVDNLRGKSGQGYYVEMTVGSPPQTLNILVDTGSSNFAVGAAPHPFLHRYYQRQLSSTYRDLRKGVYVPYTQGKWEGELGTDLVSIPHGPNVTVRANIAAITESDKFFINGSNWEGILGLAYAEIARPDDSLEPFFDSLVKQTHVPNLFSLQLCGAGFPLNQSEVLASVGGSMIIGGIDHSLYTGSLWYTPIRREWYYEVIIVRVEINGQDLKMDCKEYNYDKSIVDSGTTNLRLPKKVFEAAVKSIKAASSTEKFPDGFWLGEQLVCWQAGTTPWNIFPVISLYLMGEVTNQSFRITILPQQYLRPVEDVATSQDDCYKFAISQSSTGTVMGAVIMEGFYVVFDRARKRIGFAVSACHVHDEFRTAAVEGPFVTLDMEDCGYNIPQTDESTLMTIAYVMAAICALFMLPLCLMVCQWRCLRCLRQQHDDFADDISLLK
# [9] = angiogenesis in vitro (test not specified); assay type: cell-based
# [10] = test system: human lung adenocarcinoma (A-549) xenografts; test: human lung adenocarcinoma A-549 xenografts in nude mice; assay type: in vivo
# Description: FIG. 9a: Anti-tumoral effect of the γ-secretase inhibitor DAPT and of the β-secretase inhibitor Z-VLL-CHO on human lung adenocarcinoma (A-549) xenografts growth rates. A-549 cells (8.5×10^6) were injected subcutaneously into both flanks of 8-10 weeks-old nude mice. Mice were injected intraperitoneally with either the vehicle, 5 mg/Kg of body weight of the β-secretase inhibitor Z-VLL-CHO or 10 mg/Kg of body weight of the γ-secretase inhibitor DAPT, starting when tumors had reached a mean tumor volume of approximately 200 mm^3 (day 21 post implantation). Injections were given everyday for 12 days. […] FIG. 9b: Representative pictures of sections of lung adenocarcinoma tumors immunostained with CD31 antibodies. FIG. 9c: Histogram depicting the quantification of the vascularization of lung adenocarcinoma tumors.
# FIG. 10: Anti-tumoral effect of the γ-secretase inhibitor JLK-6 on human lung adenocarcinoma (A-549) xenografts growth rates. A-549 cells (8.5×10^6) were injected subcutaneously into both flanks of 8-10 weeks-old nude mice. Mice were injected intraperitoneally everyday from Day 16 (when the tumors reached a volume of approximately 150 mm^3) with either the vehicle or 5 mg/Kg of body weight of the γ-secretase inhibitor JLK-6.
# The human glioblastoma U-87 MG and human lung adenocarcinoma A-549 cell lines were obtained from American Tissue Culture Type Collection (Manassas, Va.) and were grown in DMEM containing 1×penicilline-streptomycine-fungizone and 10% fetal bovine serum at 37° C. in a humidified atmosphere of 5% CO2. Tumor cells (6×106) in 100 μl of PBS were inoculated subcutaneously into both flanks of 8-10-week-old female nude mice (Harland). Tumor volume (in mm^3) was determined using the formula (length×width^2)/2, where length was the longest axis and width the measurement at right angles to the length (Clarke et al. 2000). When the tumor volumes reached approximately 150 mm^3, animals were treated intraperitoneally everyday with 100 μl of 50% DMSO/H2O (vehicle group), 5 mg/Kg of body weight of Z-VLL-CHO (β-secretase inhibitor), 5 mg/Kg of JLK-6 (γ-secretase inhibitor) or with 10 mg/Kg of body weight of DAPT. Data were expressed as mean tumor volume±S.E for each treatment group.
# At the completion of the study, animals were humanely euthanized and tumors were harvested and fixed in paraformaldehyde 4% overnight at 4° C. After paraffin embedding in an automated tissue processing Sakura Tissue-Tek (E150) (Torrence, Calif.), samples were cut into 5 μm sections, deparafinized, and rehydrated through a graded series of alcohol. Sections were treated with 0.02 mg/ml Proteinase K (Gentra Systems, MN) for 15 minutes at 37° C. to allow for proper antigen retrieval, washed several times in PBS and incubated for 15 minutes in a 0.3% solution of hydrogen peroxide. Sections were blocked and then immunostained with a 1:40 dilution of a PECAM-1 antibody (BD-Pharmingen, CA) overnight at 4° C. in a humidification chamber. Vector ABC Kits (Vector Laboratories Inc, CA) where used following the manufacturer's instruction for the immunostaining. Quantification of tumor vascularization was performed using the stereological dissector method. Briefly, forty consecutive sections were taken from a randomly chosen starting point in each tumor. Five sections for each tumor were selected for stereology by taking one section every eight sections. A dissector counting frame was used with inclusion and exclusion lines throughout the reference area. Vessel count was performed at ×400 magnification with the use of an Olympus microscope connected to a digital video camera. Microvessels were counted in the dissector frame by an experimenter unaware of the different treatment conditions. For each tumor an average vessel count per area of dissector frame was determined. A vascular index was calculated by expressing the vessel count as a percentage of the vessel count in the vehicle treatment condition.
# presenilin 1 and 2 = settings: cited from earlier work
compound,measurement,setting,value
"CC(C)C[C@H](NC(=O)[C@H](CC(N)=O)NC(=O)[C@@H](NC(=O)[C@@H](N)CCC(=O)O)C(C)C)[C@@H](O)C[C@@H](C)C(=O)N[C@@H](C)C(=O)N[C@@H](CCC(=O)O)C(=O)N[C@@H](Cc1ccccc1)C(=O)O [OM99-2, Glu-Val-Asn-Leu-ψ-Ala-Ala-Glu-Phe [ψ denotes replacement of CONH by (S)—CH(OH)CH2]] (H-EVN[LeuΨ(S-CHOHCH2)Ala]AEF-OH)",cellular toxicity / viability of human brain endothelial cells versus control,[1],without affecting their viability
same,"LDH activity in the culture medium, ANOVA main effect",[1],significant main effect
"CC(C)C[C@H](NC(=O)[C@H](CC(N)=O)NC(=O)[C@@H](NC(=O)[C@@H](N)CCC(=O)O)C(C)C)[C@@H](O)CC(=O)N[C@H](C(=O)N[C@@H](C)C(=O)N[C@@H](CCC(=O)O)C(=O)N[C@@H](Cc1ccccc1)C(N)=O)C(C)C [GL189, H-Glu-Val-Asn-Statine-Val-Ala-Glu-Phe-NH] (H-EVN[Sta]VAEF-NH2)",cellular toxicity / viability of human brain endothelial cells versus control,[1],without affecting their viability
"CC(C)CC(NC(=O)C(Cc1ccccc1)CC(O)C(Cc1ccccc1)NC(=O)OC(C)(C)C)C(=O)NC(Cc1ccccc1)C(N)=O [L-685,458, {1S-Benzyl-4R-[1-(1S-carbamoyl-2-phenethylcarbamoyl)-1S-3-methylbutylcarba-moyl]-2R-hydroxy-5-phenyl-pentyl}carbamic acid tert-butyl ester]",accumulation of carboxyl-terminal APP fragments (APP CTF),APP [2],stimulates
same,accumulation of carboxyl-terminal APP fragments (APP CTF),APP [2]; listed as L-685-485,promoted the accumulation
same,Notch intracellular domain production,Notch,blocks
same,secretion of α-sAPP,APP [3],not
same,cellular toxicity / viability of human brain endothelial cells versus control,[1],without inducing cellular toxicity
same,"LDH activity in the culture medium, ANOVA main effect",[1],no main effect
same,IC50,γ-secretase [4]; read-out: Ab40 IC50,48 nM
same,IC50,γ-secretase [4]; read-out: Ab42 IC50,67 nM
same,IC50,γ-secretase [4]; read-out: Abtotal IC50,17 nM
same,capillary network length / capillary morphogenesis versus control,"[5]; 5 μM, 20 hours",potent angiogenic effect
same,capillary morphogenesis,[5]; low dose,stimulated capillary morphogenesis
same,area covered by microvessel outgrowths versus control,explants of rat aortae; 1 μM,inhibited
same,area covered by microvessel outgrowths versus control,explants of rat aortae; 5 μM,inhibited
same,selectivity for γ-secretase than for the aspartyl protease cathepsin,[6],over a hundred-fold greater
same,"proliferation of human brain endothelial cells, dose dependence",[7],dose dependently inhibited
same,binding to presenilin,presenilin,binds to presenilin
"COC(=O)C(NC(=O)C(C)NC(=O)Cc1cc(F)cc(F)c1)c1ccccc1 [DAPM, N-[N-3,5-difluorophenacetyl]-L-alanyl-S-phenylglycine methyl ester]",early Aβ oligomerization (Aβ dimer and trimer formation),Aβ,prevents
same,IC50,γ-secretase [8],~10 nM
same,cellular toxicity / viability of human brain endothelial cells versus control,[1],without inducing cellular toxicity
same,"proliferation of human brain endothelial cells, dose dependence",[7],dose dependently inhibited
"H-Lys-Thr-Glu-Glu-Ile-Ser-Glu-Val-Asn-Stat-Val-Ala-Glu-Phe-OH [P10-P4′statV, H-Lys-Thr-Glu-Glu-Ile-Ser-Glu-Val-Asn-Stat-Val-Ala-Glu-Phe-OH [Stat=(3S,4S)-Statine]]",IC50,BACE,30 nM
same,"sprouting of microvessel outgrowths, overall / dose dependence","explants of rat aortae; day 4, 5 and 6",dose dependently and potently inhibited
"COc1oc(=O)c2cc(N)ccc2c1Cl [JLK-6, 7-amino-4-chloro-3-methoxyisocoumarin]",angiogenesis in vitro,[9],appears to reduce angiogenesis
same,processing of Notch,Notch,does not affect
same,cellular toxicity / viability of human brain endothelial cells versus control,[1],without inducing cellular toxicity
same,vascularization of A-549 tumors,[10]; 5 mg/Kg intraperitoneally,inhibited
same,growth (tumor volume) of A-549 xenografts versus vehicle,[10]; 5 mg/Kg intraperitoneally everyday from Day 16,inhibited; also recorded: significantly inhibits the growth; also recorded: inhibit the growth
same,proteolysis of presenilin 1 and 2,presenilin 1 and 2,does not affect
same,"proliferation of human brain endothelial cells, dose dependence",[7],dose dependently inhibited
